Measured values published in publication PMC11243320, “Tailoring Fibroblast-Activation Protein Targeting for Theranostics: A Comparative Preclinical Evaluation of the ^68Ga- and ^177Lu-Labeled Monomeric and Dimeric Fibroblast-Activation Protein Inhibitors DOTA.SA.FAPi and DOTAGA.(SA.FAPi)2” (Molecules, 2024).

Test system: PC3 tumor-bearing mice
Assay: Ex vivo biodistribution of 68Ga-labeled radiotracers in PC3 xenografts
Method: U87MG and PC3 tumor-bearing mice: Female athymic BALB/c (6 weeks/16–20 g) and male athymic BALB/c nude mice (6 weeks/20–25 g) were implanted with U87MG or PC3 cells (5 × 10^6/100 µL PBS) into their right shoulder, respectively. The animals were used for biodistribution and PET/SPECT/CT imaging studies (Animal License No: BE98/2021).
Ten pmol (0.08–0.1 MBq) of the radiotracers in 100 µL of NaCl 0.9% were injected intravenously into the tail vein of U87MG and PC3 tumor-bearing mice and biodistribution studies were conducted at 1, 2, and 3 h after injection.
Saturation Binding Studies […]
The radioactivity of the culture medium, the receptor bound , the internalized and the externalized fractions were measured in a γ -counter. The externalized fraction of radioactivity was ex-pressed as the percentage of the total internalized amount.
[68Ga]Ga -DOTA.SA.FAPi and [ 68Ga]Ga -DOTAGA.(SA.FAPi) 2
Ten pmol ( 0.08 –0.1 MBq) of [68Ga]Ga -monomer and [ 68Ga]Ga -dimer in 100 µ L of NaCl 0.9% were injected intravenously into the tail vein of U87MG or PC3 tumor bearing mice . The PC3 tumor-bearing mice were used between the 15th and 17th day after the xenograft implantation and the size was 281 ± 75 mm3. The U87MG tumor-bearing mice were used between the 7th and 9th day after the implantation and the size was 210 ± 34 mm3. Animals were terminally anesthetized by intraperitoneal injection of an overdose of pento-barbital natrium (150 mg/kg; Streuli Pharma SA, Uznach, Switzerland) at 1, 2 and 3 h after injection of the radiotracers. The organs of interest were dissected and weighed, and the radioactivity in the tissue samples […]
was counted in a γ-counter. Biodistribution data are given as the percent of injected activity per gram of tissue (% IA/g) and as means ± SD (n = 4). […]
each radiotracer along with 20 nmol of UAMC1110 (total injected volume: 100 µL) and biodistribution stud-ies were performed 2 h after injection.
[177Lu]Lu-DOTA.SA.FAPi and [177Lu]Lu-DOTAGA.(SA.FAPi)2
Ten pmol (0.06-0.08 MBq) of [177Lu]Lu-monomer and [177Lu]Lu-dimer in 100 µL of NaCl 0.9% were injected intravenously into the tail vein of PC3 tumor-bearing mice. The PC3 tumor-bearing mice were used between the 15th and 17th day after the xenograft implantation and its size was 281 ± 75 mm3. Animals were terminally anesthetized by intraperitoneal injection of an overdose of pentobarbital natrium (150 mg/kg; Streuli Pharma SA, Uznach, Switzerland) 1, 4, 24 and 48 h after the injection of [177Lu]Lu-DOTA.SA.FAPi and at 4, 24, 48, 72 and 96 h after the injection of [177Lu]Lu-DOTAGA.(SA.FAPi)2. The organs of interest were dissected and weighed, and the radioactivity in the tissue samples was counted in a γ-counter. The biodistribution data are given as the percent of injected activity per gram of tissue (% IA/g) and as means ± SD (n = 4). […]
blood pools or if they were necrotic. Both tumor types were “clean” without extended vascularization; there […]
Small Animal Imaging Studies
PET images were obtained after injection of 200 pmol of [68Ga]Ga-DOTA.SA.FAPi and [68Ga]Ga-DOT-AGA.(SA.FAPi)2 (1.0–1.6 MBq/100 μL) into U87MG or PC3 xenografts at 1, 2 and 3 h after injection. Static imaging was acquired for a time period between 10 and 45 min at 1, 2 and 3 h post injection, respectively.
To visualize the extent of FAP-specific tumor uptake, PET/CT blocking studies were performed as described above, and static scans were obtained for 30 min 2 h after the injection of the radiotracer along with the blocking agent (20 nmol).
PET images were corrected for gallium-68 decay and reconstructed with 12 iterations of the maximum a posteriori (MAP) algorithm using a voxel size of 0.25 mm. No correction was applied for attenuation. In addition, a point spread function iterative deconvolution was applied. The images were normalized, filtered using a Gaussian 3D algorithm with a 1.3 mm isotropic kernel and generated using PMOD software. The CT was carried out using step and shoot mode and employed 45 kVp and 400 uA as settings. The images […]

[1] = 2 h blocking (20 nmol UAMC1110)

N#C[C@@H]1CC(F)(F)CN1C(=O)CNC(=O)c1ccnc2ccc(OCCCCNc3c(NCCNC(=O)CN4CCN(CC(=O)[O-])CCN(CC(=O)[O-])CCN(CC(=O)[O-])CC4)c(=O)c3=O)cc12.[68Ga+3] [[^68Ga]Ga-DOTA.SA.FAPi]
Biodistribution Blood (1 h): 8.5± 0.6 % IA/g | Biodistribution Bone (1 h): 3.4±0.4 % IA/g | Biodistribution Heart (1 h): 4.6±1.6 % IA/g | Biodistribution Intestine (1 h): 2.7±0.2 % IA/g | Biodistribution Kidney (1 h): 3.6±0.3 % IA/g | Biodistribution Liver (1 h): 2.4±0.1 % IA/g | Biodistribution Lung (1 h): 3.4±0.6 % IA/g | Biodistribution Muscle (1 h): 2.5±0.2 % IA/g | Biodistribution PC3-Tumor (1 h): 6.1±0.7 % IA/g | Biodistribution Pancreas (1 h): 8.9±1.0 % IA/g | Biodistribution Spleen (1 h): 2.5±0.1 % IA/g | Biodistribution Stomach (1 h): 2.0±0.4 % IA/g | Tumor/Blood ratio (1 h): 0.7±0.03 | Tumor/Liver ratio (1 h): 1.8±0.1 | Tumor/Muscle ratio (1 h): 2.4±0.4 | Tumor/Pancreas ratio (1 h): 0.7±0.1 | Biodistribution Blood (2 h): 4.8±0.3 % IA/g | Biodistribution Bone (2 h): 2.0±0.2 % IA/g | Biodistribution Heart (2 h): 1.9±0.1 % IA/g | Biodistribution Intestine (2 h): 2.6±0.2 % IA/g | Biodistribution Kidney (2 h): 2.7±0.2 % IA/g | Biodistribution Liver (2 h): 2.7±0.2 % IA/g | Biodistribution Lung (2 h): 2.2±0.1 % IA/g | Biodistribution Muscle (2 h): 2.6±0.3 % IA/g | Biodistribution PC3-Tumor (2 h): 5.4±2.4 % IA/g | Biodistribution Pancreas (2 h): 6.4±0.5 % IA/g | Biodistribution Spleen (2 h): 1.7±0.1 % IA/g | Biodistribution Stomach (2 h): 1.4±0.1 % IA/g | Tumor/Blood ratio (2 h): 1.2±0.6 | Tumor/Liver ratio (2 h): 2.1±0.1 | Tumor/Muscle ratio (2 h): 2.1±1.2 | Tumor/Pancreas ratio (2 h): 0.9±0.4 | Biodistribution Blood [1]: 0.3±0.1 % IA/g | Biodistribution Bone [1]: 0.2±0.1 % IA/g | Biodistribution Heart [1]: 0.1±0.05 % IA/g | Biodistribution Intestine [1]: 0.4± 0.1 % IA/g | Biodistribution Kidney [1]: 1.2±0.2 % IA/g | Biodistribution Liver [1]: 0.2±0.04 % IA/g | Biodistribution Lung [1]: 0.3±0.1 % IA/g | Biodistribution Muscle [1]: 0.1±0.06 % IA/g | Biodistribution PC3-Tumor [1]: 0.5±0.1 % IA/g | Biodistribution Pancreas [1]: 0.1±0.06 % IA/g | Biodistribution Spleen [1]: 0.1± 0.04 % IA/g | Biodistribution Stomach [1]: 0.1±0.07 % IA/g | Biodistribution Blood (3 h): 4.7±0.4 % IA/g | Biodistribution Bone (3 h): 3.4±2.4 % IA/g | Biodistribution Heart (3 h): 2.0±0.1 % IA/g | Biodistribution Intestine (3 h): 2.4±0.4 % IA/g | Biodistribution Kidney (3 h): 2.4±0.4 % IA/g | Biodistribution Liver (3 h): 2.6±0.4 % IA/g | Biodistribution Lung (3 h): 2.1±0.3 % IA/g | Biodistribution Muscle (3 h): 2.3±0.2 % IA/g | Biodistribution PC3-Tumor (3 h): 5.0±0.2 % IA/g | Biodistribution Pancreas (3 h): 5.1±1.1 % IA/g | Biodistribution Spleen (3 h): 1.8±0.5 % IA/g | Biodistribution Stomach (3 h): 1.6±0.1 % IA/g | Tumor/Blood ratio (3 h): 1.8±0.2 | Tumor/Liver ratio (3 h): 3.3±0.5 | Tumor/Muscle ratio (3 h): 3.8±0.4 | Tumor/Pancreas ratio (3 h): 1.7±0.4
